In doi:10.1101/2023.10.01.560353v1 (bioRxiv, 2023):
Values after ≈ are worked out from the molar mass of the structure shown. Peptide text beside a SMILES is read from it.

How the values were obtained:
A. baumannii ATCC19606 = assay: Outer membrane permeabilization, NPN uptake; type: cell-based, Acinetobacter baumannii; settings: peptide at its MIC; polymyxin B as positive control; three replicates
[1] = tested on: 11 clinically relevant bacterial pathogens; assay: MIC over the panel of pathogens; type: cell-based; settings: Table S17; lowest MIC over the strains tested
A. baumannii ATCC 19606 [2] = assay: MIC, broth microdilution; type: cell-based, Acinetobacter baumannii; settings: broth microdilution in LB, 20 h at 37 °C, OD600; mean of three replicates
A. baumannii ATCC 19606 [3] = assay: Neutropenic thigh infection mouse model; type: in vivo, CD-1 mice; settings: single intraperitoneal dose at MIC, n = 6

For `CC[C@H](C)[C@H](NC(=O)[C@H](CO)NC(=O)CNC(=O)[C@H](CC(C)C)NC(=O)[C@H](CC(C)C)NC(=O)[C@H](CC(C)C)NC(=O)[C@H](CCCNC(=N)N)NC(=O)[C@H](CCCCN)NC(=O)[C@@H](NC(=O)[C@H](CO)NC(=O)[C@H](CC(N)=O)NC(=O)[C@@H](NC(=O)[C@H](CC(C)C)NC(=O)[C@@H](N)CC(C)C)[C@@H](C)CC)[C@@H](C)CC)C(=O)N[C@@H](CC(C)C)C(=O)O` [Arctodutin-1] (H-LLINSIKRLLLGSIL-OH), the “outer membrane permeabilization (NPN uptake)” value (A. baumannii ATCC19606) was “permeabilized the outer membrane” and the “MIC (lowest MIC value obtained in the antimicrobial activity assays)” value (“MIC” for short) [1] was 2000 mM (≈ 3330 mg/mL).
`CC[C@H](C)[C@H](N)C(=O)N[C@@H](Cc1ccccc1)C(=O)N[C@@H](CC(C)C)C(=O)N[C@@H](Cc1c[nH]cn1)C(=O)N[C@@H](CC(C)C)C(=O)N[C@@H](CCCCN)C(=O)N[C@H](C(=O)N[C@@H](CC(C)C)C(=O)N[C@@H](CCCCN)C(=O)N[C@H](C(=O)N[C@H](C(=O)N[C@@H](CCCNC(=N)N)C(=O)N[C@@H](CC(C)C)C(=O)N[C@@H](CC(C)C)C(=O)O)[C@@H](C)CC)[C@@H](C)CC)[C@@H](C)CC` [Elephasin-2] (H-IFLHLKILKIIRLL-OH) was tested, and the “Minimal Inhibitory Concentration: A. baumannii ATCC19606” value (A. baumannii ATCC 19606 [2]) was 1 µmol/L, the “reduction of the bacterial load four days post-treatment” value (A. baumannii ATCC 19606 [3]) was 3-4 orders of magnitude and the “MIC” value [1] was 1000 mM (≈ 1730 mg/mL).
In the case of `CC[C@H](C)[C@H](NC(=O)[C@H](CO)NC(=O)[C@H](CCCNC(=N)N)NC(=O)[C@H](C)NC(=O)[C@H](Cc1c[nH]cn1)NC(=O)[C@H](CC(C)C)NC(=O)[C@H](CS)NC(=O)[C@H](C)NC(=O)[C@@H](N)CCCNC(=N)N)C(=O)N[C@@H](C)C(=O)N[C@@H](CCCNC(=N)N)C(=O)N[C@@H](CC(C)C)C(=O)N[C@@H](Cc1c[nH]cn1)C(=O)N[C@@H](CCCCN)C(=O)N[C@@H](CCCNC(=N)N)C(=O)N[C@@H](Cc1c[nH]c2ccccc12)C(=O)N[C@@H](CCCNC(=N)N)C(=O)N1CCC[C@H]1C(=O)N[C@H](C(=O)N[C@@H](Cc1c[nH]cn1)C(=O)N[C@@H](CCC(N)=O)C(=O)NCC(=O)N[C@@H](CC(C)C)C(=O)NCC(=O)N[C@@H](CC(C)C)C(=O)N[C@@H](CCCCN)C(=O)O)C(C)C` [Mammuthusin-2] (H-RACLHARSIARLHKRWRPVHQGLGLK-OH), the “Minimal Inhibitory Concentration: A. baumannii ATCC19606” value (A. baumannii ATCC 19606 [2]) is reported as 32 µmol/L, the “reduction of the bacterial load four days post-treatment” value (A. baumannii ATCC 19606 [3]) is reported as 3-4 orders of magnitude and the “MIC” value [1] is reported as 32000 mM (≈ 97900 mg/mL).
With `CC[C@H](C)[C@H](N)C(=O)N[C@@H](CO)C(=O)N[C@@H](CC(C)C)C(=O)N[C@@H](Cc1ccccc1)C(=O)N[C@H](C(=O)N[C@@H](CCCNC(=N)N)C(=O)N1CCC[C@H]1C(=O)N[C@@H](CC(C)C)C(=O)N[C@@H](C)C(=O)N[C@@H](CC(C)C)C(=O)NCC(=O)N[C@H](C(=O)N[C@@H](CCCNC(=N)N)C(=O)N[C@@H](CC(C)C)C(=O)O)C(C)C)[C@@H](C)CC` [Psephotellin-1] (H-ISLFIRPLALGVRL-OH) the “outer membrane permeabilization (NPN uptake)” value (A. baumannii ATCC19606) was “permeabilized the outer membrane” and the “MIC” value [1] was 16000 mM (≈ 25100 mg/mL).
